Assay results: publication PMC11540889, “In Vitro Cytotoxicity of Fluorinated Quaternary Ammonium Salts in Colorectal Cancer Cells and In Silico Pharmacology” (Advances in Pharmacological and Pharmaceutical Sciences, 2024)

Legend:
[1] = system: SW48 (Dukes' Type C, Grade IV, noninvasive colorectal adenocarcinoma); assay: MTT cytotoxicity, SW48 cells; settings: for CC50: SW48 cells, MTT, 48 h, mean ± SD; for Index of selectivity MCRT / SW48: IS = CC50 MCRT ÷ CC50 SW48; for Index of selectivity PBMC / SW48: IS = CC50 PBMC ÷ CC50 SW48
Method: (§1) The compounds were solubilized in dimethyl sulfoxide (DMSO, Fischer Chemical, NJ, USA) at 50,000 μg/mL and stored at −20°C until use. From the stock solution, six serial 1:2 double dilutions of each compound were prepared to start with concentrations of 100, 50, 25, 12.5, 6.25, and 3.125 μg/mL, respectively. 5-FU, one of the conventional drugs to treat CRC [34], was used as an antitumor compound control at concentrations ranging between 800 and 0.625 μM.
(§2) SW948 (Dukes' Type C, Grade III, premetastatic colorectal adenocarcinoma—CCL-237), SW48 (Dukes' Type C, Grade IV, noninvasive colorectal adenocarcinoma—CCL231), and SW620 (Dukes' Type C, Grade IV invasive colorectal adenocarcinoma—CCL227) (American Type Culture Collection Manassas, VA, USA) were maintained in standard conditions at 37°C, without a CO2 atmosphere. PBMCs and MCRT were used as nontumoral control cells. PBMCs were obtained by healthy donors, separated using Histopaque-1077 (Sigma-Aldrich) and cultured in RPMI-1640 medium (Sigma-Aldrich) supplemented with 10% SFB and 1% penicillin/streptomycin [46]. In turn, MCRT were obtained from healthy BALB/c mice; for this, mice were euthanized with CO2 after previous sedation, the colorectal tissue removed, cleaned up, and cut into 2 × 2 mm pieces, suspended in supplemented DMEM, and used immediately after collection. […] Moreover, the inclusion of PBMC also served to assess the systemic toxicity of FQAS.
(§3) The cytotoxic activity of synthesized FQASs and QASs was studied by measuring cell viability/mortality, determined with the MTT (3-(4,5-dimethylthiazol-2-yl)-2,5-diphenyl tetrazole bromide) method (VWR Chemicals and Reagents Avantor), upon exposure of each cell line to six serial dilutions of the different compounds independently. Unexposed cells were included as viability controls, and cells exposed to 5-FU were included as cytotoxicity controls. Briefly, cells were adjusted to 200,000 cells/mL in the corresponding supplemented culture medium, and 100 μL (20,000 cells/well) were dispensed into each 96-well cell culture plate (Nunc, Thermo Fisher Scientific). Twelve hours after seeding the monolayer, 100 μL dilution of each compound was added to each well; the plates containing CRC were incubated at 37°C in the absence of CO2, while plates with PBMCs and MCRT were incubated at 37°C and 5% CO2 atmosphere. For MCRT, each piece was placed into each well of a 96-well plate and exposed to each dilution of the FQASs and QASs. After 48 h of incubation, 30 μL/well of MTT (5 mg/mL) was added, and plates were left at 37°C for 3 h, protected from light. After this time, 100 μL/well of DMSO was added to solubilize the formazan crystals formed. Plates were read at 570 nm on a Varioskan plate reader (Thermo Fisher), and nonspecific absorbance was corrected by subtracting the optical densities (OD) of the blank solutions corresponding to the supplemented culture media (RPMI 1640, DMEM, or L-15 media) and 0.5% DMSO. Each concentration of the FQASs, QASs, and controls was evaluated in duplicate in three independent experiments.
(§4) The percentages of viability (equation (1)) and mortality (equation (2)) were calculated with the net OD:(1) % viability=OD treated cell÷nontreated cells×100, (2) % mortality=100−% viability.
(§5) The %mortality data for each compound concentration was recorded, and the median cytotoxic concentration (CC50), corresponding to the concentration at which 50% of cell death occurs, was calculated using GraphPad Prism 8 software (GraphPad, Software, Inc., La Jolla, CA, USA). […] Lastly, the index of selectivity (IS) was calculated by dividing the CC50 value obtained for control cells (MCRT and PBMCs) by the CC50 value obtained for each CRC cell phenotype using the formula: IS = CC50 (MCRT or PBMC) ÷ CC50 (SW948, SW48 or SW620).

[2] = system: CRC cell lines SW48, SW620, and SW948; assay: MTT cytotoxicity across CRC cell lines (pooled statements, selectivity between lines); format: cell-based; settings: for Index of selectivity SW48 vs. SW620: IS = CC50 SW48 ÷ CC50 SW620; for Index of selectivity SW948 vs. SW48: IS = CC50 SW948 ÷ CC50 SW48; for Index of selectivity SW948 vs. SW620: IS = CC50 SW948 ÷ CC50 SW620
Method: as §1, §2, §3, §4
The %mortality data for each compound concentration was recorded, and the median cytotoxic concentration (CC50), corresponding to the concentration at which 50% of cell death occurs, was calculated using GraphPad Prism 8 software (GraphPad, Software, Inc., La Jolla, CA, USA). […]

[3] = system: SW948 (Dukes' Type C, Grade III, premetastatic colorectal adenocarcinoma); assay: MTT cytotoxicity, SW948 cells; settings: for CC50: Homo sapiens, SW948, 48 h, SW948 cells, MTT, 48 h, mean ± SD; for Index of selectivity MCRT / SW948: IS = CC50 MCRT ÷ CC50 SW948; for Index of selectivity PBMC / SW948: IS = CC50 PBMC ÷ CC50 SW948
Method: as §1, §2, §3, §4, §5

[4] = MTT cytotoxicity, peripheral blood mononuclear cells; format: cell-based; settings: human, peripheral blood mononuclear cells (PBMC); PBMC, nontumoral control, MTT, 48 h, mean ± SD
Method: as §1, §2, §3, §4, §5

[5] = system: SW620 (Dukes' Type C, Grade IV invasive colorectal adenocarcinoma); assay: MTT cytotoxicity, SW620 cells; settings: for CC50: Homo sapiens, 48 h; for Index of selectivity MCRT / SW620: IS = CC50 MCRT ÷ CC50 SW620; for Index of selectivity PBMC / SW620: IS = CC50 PBMC ÷ CC50 SW620
Method: as §1, §2, §3, §4, §5

[6] = Ex vivo MTT cytotoxicity, healthy murine colorectal tissue; format: cell-based, BALB/c mice; settings: BALB/c, mouse, healthy murine colorectal tissue (MCRT) pieces, ex vivo, nontumoral control, MTT, 48 h, mean ± SD
Method: as §1, §2, §3, §4, §5

[7] = system: peripheral blood mononuclear cells (PBMC); assay: MTT cytotoxicity, peripheral blood mononuclear cells; format: cell-based; settings: PBMCs
Method: as §1, §2, §3, §4, §5

[8] = system: healthy murine colorectal tissue (MCRT); assay: Ex vivo MTT cytotoxicity, healthy murine colorectal tissue; format: cell-based, BALB/c mice
Method: as §1, §2, §3, §4, §5

| SMILES | CC50 ([1]; Homo sapiens, SW48, 48 h) | Index of selectivity MCRT / SW48 [1] | Index of selectivity PBMC / SW48 [1] | Index of selectivity SW48 vs. SW620 [2] | Index of selectivity SW948 vs. SW48 [2] | Index of selectivity SW948 vs. SW620 [2] | CC50 [3] | Index of selectivity MCRT / SW948 [3] | Index of selectivity PBMC / SW948 [3] | CC50 at 48 h [4] | CC50 [5] | Index of selectivity MCRT / SW620 [5] | Index of selectivity PBMC / SW620 [5] | CC50 at 48 h [6] | cytotoxicity level (high/moderate/low) [1] | cytotoxicity level (high/moderate/low) [3] | cytotoxicity level (high/moderate/low) [5] | CC50 [1] | cytotoxicity in words [7] | cytotoxicity in words [8] |
| --- | --- | --- | --- | --- | --- | --- | --- | --- | --- | --- | --- | --- | --- | --- | --- | --- | --- | --- | --- | --- |
| C[N+](C)(C)CCCC=C(c1ccc(C(F)(F)F)cc1)c1ccc(C(F)(F)F)cc1 [Compound 10] | 44 ± 6 µM | 2.7 | 1.2 | 2.3 | 0.3 | 0.7 | 13.4 ± 3.9 µM | 8.9 | 3.8 | 51.4 ± 5.3 µM | 18.8 ± 4.7 µM | 6.4 | 2.7 | 119 ± 8.7 µM |  |  |  |  |  |  |
| C[N+](C)(CI)CCCCC=C(c1cccc(C(F)(F)F)c1)c1cccc(C(F)(F)F)c1 [Compound 11] | 22.1 ± 4 µM | 4.2 | 1.5 | 1.2 | 1.0 | 1.2 | 21.5 ± 4.5 µM | 4.4 | 1.6 | 33.4 ± 2 µM | 18.1 ± 3.7 µM | 5.2 | 1.9 | 93.5 ± 13.9 µM |  |  |  |  |  |  |
| C[N+](C)(CCl)CCCCC=C(c1ccc(C(F)(F)F)cc1)c1ccc(C(F)(F)F)cc1 [Compound 12] | 48 ± 5.1 µM | 2.3 | 0.8 | 3.2 | 0.5 | 1.7 | 25 ± 4.8 µM | 4.4 | 1.6 | 40.5 ± 9.5 µM | 15.1 ± 1.5 µM | 7.3 | 2.7 | 111 ± 16.7 µM | Moderate | High | High |  |  |  |
| C[N+](C)(CI)CCCCC=C(c1ccc(C(F)(F)F)cc1)c1ccc(C(F)(F)F)cc1 [Compound 13] | 18.5 µM |  | 3.3 | 1.0 | 1.7 | 1.7 | 26.9 ± 4 µM |  | 2.0 | 53.9 ± 3 µM | 16 ± 1.5 µM |  | 3.4 | > 293 µM |  |  |  | 16.3 ± 2 µM |  |  |
| C[N+](C)(C)CCCCC=C(c1ccc(C(F)(F)F)cc1)c1ccc(C(F)(F)F)cc1 [Compound 14] | 16.3 µM | 22.7 | 5.0 | 1.3 | 2.6 | 3.4 | 49 ± 11.1 µM | 8.6 | 1.9 | 93.2 ± 13.1 µM | 14.5 ± 2.9 µM | 28.9 | 6.4 | 419 ± 15 µM |  |  |  | 18.5 ± 3.6 µM |  |  |
| C[N+](C)(CI)CCCC=C(c1ccccc1)c1ccccc1 [Compound 15] | 124 ± 2.3 µM | 2.1 | 0.2 | 0.8 | 0.8 | 0.6 | 98.2 ± 4.3 µM | 2.6 | 0.3 | 29.3 ± 1.4 µM | 158 ± 2.3 µM | 1.6 | 0.2 | 256 ± 14 µM |  |  |  |  | highly cytotoxic | moderate cytotoxicity |
| C[N+](C)(CI)CCCCC=C(c1ccccc1)c1ccccc1 [Compound 16] | 65.2 ± 3.7 µM | 2.1 | 0.6 | 0.9 | 1.1 | 1.0 | 71 ± 12.4 µM | 1.9 | 0.6 | 38.8 ± 5.6 µM | 72.9 ± 4.2 µM | 1.9 | 0.5 | 135 ± 11.8 µM |  |  |  |  | highly cytotoxic | noncytotoxic |
